# Measurements: patent US7501418B2, “Fused heterocyclic isoxazoline derivatives and their use as anti-depressants” (Janssen Pharmaceutica, N.V., priority 2002, dated 2009)
# Structures can show the parent of a compound that is named as a salt. Where two headings read alike, the source gives them in different places.
# How the values were obtained:
# h5-HT transporter = molecular target: T1, h5-HT transporter (Homo sapiens, UniProt P31645); assay: Radioligand binding experiment for 5-HT transporter ([3H]paroxetine); conditions: human platelet membranes, [3H]paroxetine 0.5 nM
# T1 construct: Human platelet membranes (Oceanix Biosciences Corporation, Hanover, Md., USA) were thawed; tissue Oceanix Biosciences Corporation, Hanover, Md., USA; host or cells: human platelet membranes
# Protocol: In general, a low concentration of a radioligand with a high binding affinity for a particular receptor or transporter is incubated with a sample of a tissue preparation enriched in a particular receptor or transporter or with a preparation of cells expressing cloned human receptors in a buffered medium. During the incubation, the radioligand binds to the receptor or transporter. When equilibrium of binding is reached, the receptor bound radioactivity is separated from the non-bound radioactivity, and the receptor- or transporter-bound activity is counted. The interaction of the test compounds with the receptor is assessed in competition binding experiments. Various concentrations of the test compound are added to the incubation mixture containing the receptor- or transporter preparation and the radioligand. The test compound in proportion to its binding affinity and its concentration inhibits binding of the radioligand. The radioligand used for hα2A, hα2B and hα2C receptor binding was [^3H]-raulwolscine and for the h5-HT transporter was [^3H]paroxetine. Human platelet membranes (Oceanix Biosciences Corporation, Hanover, Md., USA) were thawed, diluted in buffer (Tris-HCl 50 mM, 120 mM NaCl and 5 mM KCl) and quickly (max 3 s) homogenised with an Ultraturrax homogenizer. In a total volume of 250 μL, 50-100 μg protein was incubated with [^3H]paroxetine (NET-869) (New England Nuclear, USA) (0.5 nM final concentration) with or without competitor for 60 min at 25 ° C. Incubation was stopped by rapid filtration of the incubation mixture over GF/B filters, pre-wetted with 0.1% polyethyleneamine, using a Filtermate196 harvester (Packard, Meriden, Conn.). Filters were rinsed extensively with ice-cold buffer and radioactivity on the filters was counted in a Topcount liquid scintillation counter (Packard, Meriden, Conn.). Data were expressed as cpm. Imipramine (at 1 μM final concentration) was used to determine the non-specific binding. Data from assays in the presence of compound were calculated as a percentage of total binding measured in the absence of test compound. Inhibition curves, plotting percent of total binding versus the log value of the concentration of the test compound, were automatically generated, and sigmoidal inhibition curves were fitted using non-linear regression. The pIC50 values of test compounds were derived from individual curves.
# hα2A receptor = molecular target: T2, hα2A receptor (Homo sapiens, UniProt P08913); assay: Radioligand binding experiment for α2A-adrenergic receptor ([3H]-raulwolscine); conditions: CHO cell membranes with human α2A receptor, [3H]raulwolscine 1 nM
# T2 construct: expressed in transfected cells
# T2 sequence (P08913 1-465): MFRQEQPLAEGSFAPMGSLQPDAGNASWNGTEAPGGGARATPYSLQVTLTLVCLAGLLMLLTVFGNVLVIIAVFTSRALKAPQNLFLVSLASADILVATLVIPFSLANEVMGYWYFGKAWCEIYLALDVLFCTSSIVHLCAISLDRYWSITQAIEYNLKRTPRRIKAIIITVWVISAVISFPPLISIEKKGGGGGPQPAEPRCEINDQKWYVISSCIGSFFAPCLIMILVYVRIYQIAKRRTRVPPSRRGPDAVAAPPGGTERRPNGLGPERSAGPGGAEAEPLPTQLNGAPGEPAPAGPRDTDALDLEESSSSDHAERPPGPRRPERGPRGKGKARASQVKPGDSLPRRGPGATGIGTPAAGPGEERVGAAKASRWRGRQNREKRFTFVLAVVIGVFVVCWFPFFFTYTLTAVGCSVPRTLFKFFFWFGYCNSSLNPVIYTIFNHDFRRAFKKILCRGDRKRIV
# Protocol: (§1) In general, a low concentration of a radioligand with a high binding affinity for a particular receptor or transporter is incubated with a sample of a tissue preparation enriched in a particular receptor or transporter or with a preparation of cells expressing cloned human receptors in a buffered medium. During the incubation, the radioligand binds to the receptor or transporter. When equilibrium of binding is reached, the receptor bound radioactivity is separated from the non-bound radioactivity, and the receptor- or transporter-bound activity is counted. The interaction of the test compounds with the receptor is assessed in competition binding experiments. Various concentrations of the test compound are added to the incubation mixture containing the receptor- or transporter preparation and the radioligand. The test compound in proportion to its binding affinity and its concentration inhibits binding of the radioligand. The radioligand used for hα2A, hα2B and hα2C receptor binding was [^3H]-raulwolscine and for the h5-HT transporter was [^3H]paroxetine. CHO cells, stabile transfected with human adrenergic-α2A-, -α2B or α2C receptor cDNA, were cultured in Dulbecco's Modified Eagle's Medium (DMEM)/Nutrient mixture Ham's F12 (ratio 1:1)(Gibco, Gent-Belgium) supplemented with 10% heat inactivated fetal calf serum (Life Technologies, Merelbeke-Belgium) and antibiotics (100 IU/ml penicillin G, 100 μg/ml streptomycin sulphate, 110 μg/ml pyruvic acid and 100 μg/ml L-glutamine). One day before collection, cells were induced with 5 mM sodiumbutyrate. Upon 80-90% of confluence, cells were scraped in phosphate buffered saline without Ca^2+ and Mg^2+ and collected by centrifugation at 1500×g for 10 min. The cells were homogenised in Tris-HCl 50 mM using an Ultraturrax homogenizer and centrifuged for 10 min at 23,500×g. The pellet was washed once by resuspension and rehomogenization and the final pellet was resuspended in Tris-HCl, divided in 1 ml aliquots and stored at −70° C. Membranes were thawed and re-homogenized in incubation buffer (glycylglycine 25 mM, pH 8.0). In a total volume of 500 μl, 2-10 μg protein was incubated with [^3H]raulwolscine (NET-722) (New England Nuclear, USA) (1 nM final concentration) with or without competitor for 60 min at 25° C. followed by rapid filtration over GF/B filter using a Filtermate196 harvester (Packard, Meriden, Conn.). Filters were rinsed extensively with ice-cold rinsing buffer (Tris-HCl 50 mM pH 7.4). Filter-bound radioactivity was determined by scintillation counting in a Topcount (Packard, Meriden, Conn.) and results were expressed as counts per minute (cpm). Non-specific binding was determined in the presence of 1 μM oxymetazoline for hα2A- and hα2B receptors and 1 μM spiroxatrine for hα2C receptors. Data from assays in the presence of compound were calculated as a percentage of total binding measured in the absence of test compound. Inhibition curves, plotting percent of total binding versus the log value of the concentration of the test compound, were automatically generated, and sigmoidal inhibition curves were fitted using non-linear regression. The pIC50 values of test compounds were derived from individual curves.
# hα2C receptor = molecular target: T3, hα2C receptor (Homo sapiens, UniProt P18825); assay: Radioligand binding experiment for α2C-adrenergic receptor ([3H]-raulwolscine)
# T3 construct: expressed in transfected cells
# T3 sequence (P18825 1-462): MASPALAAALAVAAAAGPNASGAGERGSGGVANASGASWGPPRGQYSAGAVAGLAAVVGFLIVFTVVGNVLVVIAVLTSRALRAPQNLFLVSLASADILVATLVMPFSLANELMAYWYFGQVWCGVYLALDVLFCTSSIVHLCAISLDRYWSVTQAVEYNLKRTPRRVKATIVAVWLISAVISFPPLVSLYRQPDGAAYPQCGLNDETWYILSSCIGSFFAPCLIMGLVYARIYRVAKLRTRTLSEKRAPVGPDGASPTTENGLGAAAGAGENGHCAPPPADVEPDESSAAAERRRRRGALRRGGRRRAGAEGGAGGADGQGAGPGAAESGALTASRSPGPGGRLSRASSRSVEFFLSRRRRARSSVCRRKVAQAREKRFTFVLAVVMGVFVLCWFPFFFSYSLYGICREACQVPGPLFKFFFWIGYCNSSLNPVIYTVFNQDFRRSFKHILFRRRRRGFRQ
# Protocol: as §1
# hα2B receptor = molecular target: T4, hα2B receptor (Homo sapiens, UniProt P18089); assay: Radioligand binding experiment for α2B-adrenergic receptor ([3H]-raulwolscine)
# T4 construct: expressed in transfected cells
# T4 sequence (P18089 1-450): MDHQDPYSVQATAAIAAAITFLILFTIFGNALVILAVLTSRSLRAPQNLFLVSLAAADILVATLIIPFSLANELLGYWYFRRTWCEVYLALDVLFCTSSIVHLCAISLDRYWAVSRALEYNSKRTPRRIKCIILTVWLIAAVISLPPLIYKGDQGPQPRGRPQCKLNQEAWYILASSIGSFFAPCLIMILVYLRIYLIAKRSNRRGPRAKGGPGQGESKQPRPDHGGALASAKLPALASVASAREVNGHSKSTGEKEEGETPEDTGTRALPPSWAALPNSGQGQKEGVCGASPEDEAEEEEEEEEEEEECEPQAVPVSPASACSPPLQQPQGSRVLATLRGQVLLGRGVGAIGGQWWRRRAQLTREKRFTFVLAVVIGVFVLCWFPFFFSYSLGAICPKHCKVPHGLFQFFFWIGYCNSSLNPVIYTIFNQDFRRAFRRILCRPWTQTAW
# Protocol: as §1
# [1] = CHO cell membranes with human α2C receptor, [3H]raulwolscine 1 nM
# [2] = CHO cell membranes with human α2B receptor, [3H]raulwolscine 1 nM
# [3] = read-out: 5-HTT (pIC50) (converted)
# [4] = read-out: hα2A (pIC50) (converted)
# [5] = CHO cell membranes with human α2C receptor, [3H]raulwolscine 1 nM, read-out: hα2C (pIC50) (converted)
# [6] = hα2C (pIC50), CHO cell membranes with human α2C receptor, [3H]raulwolscine 1 nM
# [7] = hα2B (pIC50), CHO cell membranes with human α2B receptor, [3H]raulwolscine 1 nM
# T1 sequence (P31645 whole entry): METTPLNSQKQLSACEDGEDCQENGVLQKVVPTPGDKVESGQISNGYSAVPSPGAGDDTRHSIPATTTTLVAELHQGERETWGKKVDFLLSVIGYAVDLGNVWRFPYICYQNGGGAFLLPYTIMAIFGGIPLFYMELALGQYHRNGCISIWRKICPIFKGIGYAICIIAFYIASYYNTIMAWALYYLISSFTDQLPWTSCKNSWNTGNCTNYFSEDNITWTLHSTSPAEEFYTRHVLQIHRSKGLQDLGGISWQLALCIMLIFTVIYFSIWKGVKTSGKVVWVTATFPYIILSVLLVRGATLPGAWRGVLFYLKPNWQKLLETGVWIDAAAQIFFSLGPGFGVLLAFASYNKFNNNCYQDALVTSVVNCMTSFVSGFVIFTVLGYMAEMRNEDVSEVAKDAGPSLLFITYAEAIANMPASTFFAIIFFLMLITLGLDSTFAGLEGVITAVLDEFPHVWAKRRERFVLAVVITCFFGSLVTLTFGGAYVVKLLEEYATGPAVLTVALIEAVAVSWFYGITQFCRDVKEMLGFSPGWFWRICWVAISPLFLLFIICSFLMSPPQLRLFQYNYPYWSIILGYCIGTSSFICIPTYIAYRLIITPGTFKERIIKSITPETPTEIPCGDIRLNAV
Structure (SMILES),melting point,IC50 (h5-HT transporter; 5-HTT (pIC50)),IC50 (hα2A receptor; hα2A (pIC50)),5-HTT (pIC50) (h5-HT transporter),IC50 (hα2C receptor; [6]),IC50 (hα2B receptor; [7]),other results
"C/C(=C\c1ccccc1)CN1CCN(CC2ON=C3c4ccncc4OCC32)CC1 (stereo not shown) (as salt: oxalate) [Compound 18, 3-[4-(2-methyl-3-phenyl-allyl)-piperazin-1-ylmethyl]-3a,4-dihydro-3H-2,5-dioxa-1,7-diaza-cyclopenta[a]naphthalene oxalate salt (1/1)]",216.8 to 220.5 °C,,,,,,
"COC(=O)Cn1ccc2cc3c(cc21)OCC1C3=NOC1CN1CCN(C/C(C)=C/c2ccccc2)CC1 (stereo not shown) [Compound 10, {3-[4-(2-methyl-3-phenyl-allyl)-piperazin-1-ylmethyl]-3a,4-dihydro-3H-2,5-dioxa-1,7-diaza-dicyclopenta[a,g]naphthlen-7-yl}-acetic acid methyl ester]",,2 nM,12.6 nM,,,,IC50 (hα2C receptor): 0.794 nM; IC50 (hα2B receptor): 5.01 nM
c1ccc2cc(CN3CCN(CC4ON=C5c6cc7cc[nH]c7cc6OCC54)CC3)ccc2c1 (racemic) [Compound 4],,,,8.8,,,hα2A (pIC50) (hα2A receptor): 7.6; hα2C (pIC50) (hα2C receptor; [1]): 8.4; hα2B (pIC50) (hα2B receptor; [2]): 7.3
"C/C(=C\c1ccc(F)cc1)CN1CCN(CC2ON=C3c4ncccc4OCC32)CC1 (stereo not shown) [Compound 24, 3-{4-[3-(4-fluoro-phenyl)-2-methyl-allyl]-piperazin-1-ylmethyl}-3a,4-dihydro-3H-2,5-dioxa-1,9-diaza-cyclopenta[a]naphthalene]",145.6 to 152.3 °C,,,,,,IC50 (h5-HT transporter; [3]): 200 nM; IC50 (hα2A receptor; [4]): 6.31 nM; IC50 (hα2C receptor; [5]): 31.6 nM
"C/C(=C\c1ccccc1)CN1CCN(CC2ON=C3c4cc5ccn(CCO)c5cc4OCC32)CC1 (single isomer, unassigned) [Compound 17, B-2-{3-[4-(2-methyl-3-phenyl-allyl)-piperazin-1-ylmethyl]-3a,4-dihydro-3H-2,5-dioxa-1,7-diaza-dicyclopenta[a,g]naphthalen7-yl}-ethanol]",167.5 to 170.5 °C,501 nM,10 nM,,2 nM,5.01 nM,
"C/C(=C\c1ccc(F)cc1)CN1CCN(CC2ON=C3c4sccc4OCC32)CC1 (stereo not shown) [Compound 27, 3-{4-[3-(4-fluoro-pheny)-2-methyl-allyl]-piperazin-1-ylmethyl}-3a,4-dihydro-3H-2,5-dioxa-8-thia-1-aza-as-indacene]",142.3 to 146 °C,,,,,,IC50 (h5-HT transporter; [3]): 79.4 nM; IC50 (hα2A receptor; [4]): 2 nM; IC50 (hα2C receptor; [5]): 7.94 nM
"C/C(=C\c1ccccc1)CN1CCN(CC2ON=C3c4cc5ccn(CCO)c5cc4OCC32)CC1 (single isomer, unassigned) [Compound 16, A-2-{3-[4-(2-methyl-3-phenyl-allyl)-piperazin-1-ylmethyl]-3a,4-dihydro-3H-2,5-dioxa-1,7-diaza-dicyclopenta[a,g]naphthalen7-yl}-ethanol]",167.9 to 170.2 °C,,316 nM,6.3,50.1 nM,20 nM,
C/C(=C\c1cccc(F)c1)CN1CCN(CC2ON=C3c4cc5cc[nH]c5cc4OCC32)CC1 (racemic) [Compound 2],,,,8.3,,,hα2A (pIC50) (hα2A receptor): 8.1; hα2C (pIC50) (hα2C receptor; [1]): 9.0; hα2B (pIC50) (hα2B receptor; [2]): 8.3
C/C(=C\c1ccccc1)CN1CCN(CC2ON=C3c4cc5ccn(CCO)c5cc4OCC32)CC1 (stereo not shown) [Compound 8],,3.98 nM,15.8 nM,,2 nM,5.01 nM,
"C/C(=C\c1ccccc1)CN1CCN(C[C@@H]2ON=C3c4cc5cc[nH]c5cc4OC[C@H]32)CC1 (relative stereo) [Compound 1, 3-[4-(2-Methyl-3-phenyl-allyl)-piperazin-1-ylmethyl]-3a,4-dihydro-3H-2,5-dioxa-1,7-diaza-dicyclopenta[a,g]naphthalene]",173.2 to 179.1 °C,3.98 nM,5.01 nM,,,,IC50 (hα2C receptor): 1 nM; IC50 (hα2B receptor): 3.98 nM
